Drawing on PubChem BioAssay (NCI), this text covers TGI and GI50 for 15 compounds.

Some test systems named below: K-562 leukemia; HL-60(TB) leukemia; HCT-116 colon; EKVX NSCLC; OVCAR-5 ovarian; SK-OV-3 ovarian; MOLT-4 leukemia; SW-620 colon; KM12 colon; NCI-H226 lung; HCT-15 colon.
Test in all cases: growth of human tumour cells (NCI), 48 h

The structures appear in SMILES notation.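 All cell lines were grown in 96-well plates and treated with compound for 48 hours. Here, GI50 denotes the concentration required for 50% inhibition of growth. TGI: concentration producing complete growth inhibition.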

Regarding `CC(c1ccccc1)/[N+]([O-])=C/c1ccccc1` (configuration not stated), the TGI in the test on K-562 leukemia, with HL-60(TB) leukemia, with HCT-116 colon, in the test with EKVX NSCLC, in the test with OVCAR-5 ovarian and in the test on SK-OV-3 ovarian was > 100 µM throughout. Besides, the TGI in the test on MOLT-4 leukemia, in the test on SW-620 colon and in the test on KM12 colon was > 100 µM in each case.

On to `CC1OC1C(=O)C1(O)C(C)C(O)C23OC2(C(O)c2c(O)cccc2C3=O)C1O` (configuration not stated), for which the TGI with NCI-H226 lung was determined as 0.838 µM; with K-562 leukemia, 0.776 µM; in the test with HCT-15 colon it was 0.926 µM; in the test with HL-60(TB) leukemia, 0.383 µM; with HCT-116 colon it was 0.703 µM; in the test with EKVX NSCLC, 0.541 µM. Further, the TGI in the test with OVCAR-5 ovarian worked out at 3.08 µM; in the test with SK-OV-3 ovarian, 0.532 µM; in the test on MOLT-4 leukemia, 0.495 µM; in the test with SW-620 colon it was 1.21 µM; in the test with KM12 colon, 1.04 µM.

In the case of `CN1CCN(c2cc(-c3cc4ccccc4o3)oc(=O)c2C#N)CC1`, the TGI in the test on NCI-H226 lung was 60.7 µM; in the test with K-562 leukemia, > 100 µM; with HCT-15 colon, > 100 µM; in the test on HL-60(TB) leukemia, > 100 µM; in the test on HCT-116 colon it was > 100 µM; in the test with EKVX NSCLC, > 100 µM. Moreover, the TGI in the test with OVCAR-5 ovarian, in the test on MOLT-4 leukemia, in the test on SW-620 colon and in the test on KM12 colon was > 100 µM each time.

With `O=C(NN1C(=O)CSC1c1ccc(C(F)(F)F)cc1)c1ccncc1` (configuration not stated), the TGI in the test on NCI-H226 lung, with K-562 leukemia, with HCT-15 colon, in the test on HL-60(TB) leukemia, in the test on HCT-116 colon and in the test on EKVX NSCLC was > 100 µM throughout. For the same compound, the TGI with OVCAR-5 ovarian, with SK-OV-3 ovarian, in the test on MOLT-4 leukemia, in the test on SW-620 colon and in the test with KM12 colon was > 100 µM throughout.

In the case of `O=C(O)CC1OCC=C2CN3CCC45C6=CC(=O)C(=O)C([N+](=O)[O-])=C6NC4C1C2CC35` (configuration not stated), the TGI in the test with NCI-H226 lung, in the test on K-562 leukemia, in the test with HCT-15 colon, in the test with HL-60(TB) leukemia, in the test on HCT-116 colon and in the test on EKVX NSCLC was > 100 µM in each case. Moreover, the TGI with OVCAR-5 ovarian, with SK-OV-3 ovarian, with MOLT-4 leukemia, in the test with SW-620 colon and in the test with KM12 colon was > 100 µM throughout.

Turning to `C[C@]12CCc3sc(Nc4ccc(O)cc4)nc3C1=CC[C@@H]1[C@@H]2CC[C@]2(C)C(=O)CC[C@@H]12`, the GI50 in the test with NCI-H226 lung was 2.86 µM; with K-562 leukemia, 2.96 µM; in the test on HCT-15 colon it was 1.66 µM; in the test on HL-60(TB) leukemia it was 2.57 µM; in the test on EKVX NSCLC, 10.4 µM; in the test with OVCAR-5 ovarian it was 3.91 µM. Further, the GI50 in the test on SK-OV-3 ovarian is 12.3 µM; with MOLT-4 leukemia, 2.38 µM; in the test on SW-620 colon it was 2.08 µM. Further, the TGI in the test with NCI-H226 lung is 8.52 µM; in the test on K-562 leukemia, > 100 µM; with HCT-15 colon it was 4.4 µM; with HL-60(TB) leukemia it was 7.27 µM; in the test with EKVX NSCLC it was > 100 µM; with OVCAR-5 ovarian, > 100 µM. The TGI in the test with SK-OV-3 ovarian is > 100 µM; in the test with MOLT-4 leukemia it was > 100 µM; in the test with SW-620 colon, 4.73 µM.

As to `CC(CCC(=O)O)C1CCC2C3C(O)CC4CC(O)CCC4(C)C3CC(O)C12C` (configuration not stated), the TGI in the test with NCI-H226 lung, in the test with K-562 leukemia, with HCT-15 colon, with HL-60(TB) leukemia, with HCT-116 colon and in the test with EKVX NSCLC was > 100 µM each time. Further, the TGI with OVCAR-5 ovarian, with SK-OV-3 ovarian, in the test on MOLT-4 leukemia, in the test with SW-620 colon and with KM12 colon was > 100 µM in each case.

On to `O=C(O)CC1(CC(=O)O)Nc2ccccc2SC1=O`, for which the TGI in the test with NCI-H226 lung, with K-562 leukemia, with HCT-15 colon, with HCT-116 colon, in the test with EKVX NSCLC and with OVCAR-5 ovarian was > 100 µM throughout. Moreover, the TGI in the test with SK-OV-3 ovarian, with MOLT-4 leukemia, in the test with SW-620 colon and in the test with KM12 colon was > 100 µM throughout.

For the compound `C/C(=N\NC(=S)Nc1ccc(C)cc1)c1nc2ncccc2[nH]1`, the TGI in the test on NCI-H226 lung came out at 8.01 µM; in the test with K-562 leukemia it was 24.2 µM; with HCT-15 colon, 19.4 µM; in the test with HCT-116 colon it was 14.3 µM; in the test with EKVX NSCLC, 7.27 µM; in the test on OVCAR-5 ovarian it was 18.6 µM. In addition, the TGI in the test on SK-OV-3 ovarian is 58.3 µM; in the test with MOLT-4 leukemia it was 17.6 µM; in the test with SW-620 colon, 24 µM; in the test on KM12 colon, 32 µM.

Consider `COc1ccc(-c2c3c(nc4nc(SC)nc(SC)c24)CCCC3)cc1OC`, for which the TGI in the test with NCI-H226 lung is > 100 µM; in the test on K-562 leukemia, > 100 µM; in the test with HCT-15 colon it was > 100 µM; with HL-60(TB) leukemia, 51.4 µM; in the test with HCT-116 colon it was > 100 µM; in the test on EKVX NSCLC, > 100 µM. In addition, the TGI in the test with OVCAR-5 ovarian, in the test with SK-OV-3 ovarian, with MOLT-4 leukemia, in the test with SW-620 colon and in the test on KM12 colon was > 100 µM throughout.

Turning to `CCSc1nc(=[N+]2CCCC2)ss1`, the TGI in the test on NCI-H226 lung is > 91.3 µM; in the test with K-562 leukemia, 24.1 µM; in the test with HCT-15 colon, > 92.8 µM; with HL-60(TB) leukemia it was 26.6 µM; with HCT-116 colon it was > 86.9 µM; in the test on EKVX NSCLC, > 100 µM. Moreover, the TGI was > 100 µM in the test with OVCAR-5 ovarian; > 100 µM with SK-OV-3 ovarian; 30 µM with MOLT-4 leukemia; > 100 µM in the test on SW-620 colon; > 100 µM with KM12 colon.

`COc1cc2c(cc1OC)C(C)N(C)c1c-2c(OC(C)=O)cc2cc(OC)c(OC)cc12` (configuration not stated): the TGI with NCI-H226 lung was > 44.1 µM; with K-562 leukemia it was > 100 µM; in the test with HCT-15 colon, > 81.2 µM; in the test with HCT-116 colon, 35.2 µM; with EKVX NSCLC it was 61.9 µM; in the test with OVCAR-5 ovarian, > 100 µM. Further, the TGI with SK-OV-3 ovarian was > 100 µM; in the test on MOLT-4 leukemia it was > 100 µM; in the test with SW-620 colon, > 78.2 µM; in the test on KM12 colon it was 34.1 µM.

In the case of `O=C1OCC/C1=C/c1ccc(N=Nc2c(O)ccc3ccccc23)cc1`, the TGI is 36 µM with NCI-H226 lung; > 100 µM with K-562 leukemia; 60.7 µM in the test with HCT-15 colon; 57.1 µM in the test with HL-60(TB) leukemia; 34.6 µM in the test on HCT-116 colon; 41.8 µM in the test with EKVX NSCLC. For the same compound, the TGI with OVCAR-5 ovarian is 42.2 µM; in the test on SK-OV-3 ovarian, 55.3 µM; in the test with MOLT-4 leukemia, 51.1 µM; with SW-620 colon, 40 µM; in the test on KM12 colon it was 22.3 µM.

Turning to `NC(=S)N/N=C1\c2ccccc2CCC1CCC1(O)CCc2ccccc2C1=O` (configuration not stated), the TGI with HCT-15 colon is > 100 µM; in the test with HL-60(TB) leukemia, 20.6 µM; in the test with HCT-116 colon, 40.2 µM; with EKVX NSCLC, 59.5 µM; in the test on OVCAR-5 ovarian it was 74.2 µM; in the test on SK-OV-3 ovarian, > 100 µM. Further, the TGI in the test with MOLT-4 leukemia is 88.2 µM; in the test with SW-620 colon, > 100 µM; in the test on KM12 colon it was > 100 µM.

With `CCc1nnc(-c2nsc3ccccc23)s1`, the TGI with K-562 leukemia, with HCT-15 colon, with HL-60(TB) leukemia, with HCT-116 colon, in the test on EKVX NSCLC and with OVCAR-5 ovarian was > 100 µM throughout. The TGI in the test with MOLT-4 leukemia, in the test with SW-620 colon and with KM12 colon was > 100 µM each time.
